Data from US20180125074A1, “PESTICIDAL COMPOSITIONS AND RELATED METHODS” (priority 2015, published 2018).

System: green peach aphids (Myzus persicae)
Assay: Pesticidal activity against green peach aphid on cabbage plants after soil treatment
Format: in vivo
Conditions: for % Control at DAT of 21 days: Table 6; for % Control at DAT of 21 days / % Control at DAT of 28 days: GEROPON SDS 384 ppm
Description: Each tested compositions was prepared by mixing a predetermined amount of the CLOSER® SC insecticide (a sulfoxaflor concentrate having a sulfoxaflor concentration of 240 g/L) with a predetermined amount of sodium dioctylsulfosuccinate GEROPON® SDS anionic surfactant in an aqueous medium.
The compositions containing different amounts of sulfoxaflor and sodium dioctylsulfosuccinate GEROPON® SDS surfactant were prepared as shown in TABLE 4. For example, the “Sulfoxaflor at 100 ppm” composition contained about 0.043% weight of sulfoxaflor based on the total weight of the composition (i.e., 100 ppm of sulfoxaflor per one gram of final soil mixture). “Sulfoxaflor at 100 ppm+GEROPON®” composition contained about 0.043% weight of sulfoxaflor based on the total weight of the composition (i.e., 100 ppm of sulfoxaflor per one gram of final soil mixture), and about 0.225% weight of sodium dioctylsulfosuccinate GEROPON® SDS surfactant based on the total weight of the composition (i.e., 384 ppm per one gram of the final soil mixture; 1500 ppm per one gram of the total soil liquid).
The imidacloprid pesticide PROVADO® 1.6 from Bayer CropScience LP (North Carolina, USA) was used as a standard commercial pesticidal composition for aphid control. The imidacloprid pesticide PROVADO® 1.6 was tested at three different loadings: 100 ppm, 25 ppm, and 6.25 ppm per gram of final soil mixture. In this EXAMPLE 6, water was tested as a control composition. Furthermore, an aqueous solution of sodium dioctylsulfosuccinate GEROPON® SDS anionic surfactant was tested.
Cabbage plants (Brassica oleracea capitata L) of uniform size (two new leaf stage) infested with green peach aphids (Myzus persicae) (“GPA”) were used as the study models according to the following procedure:
Cabbage seeds were planted in 3-inch pots containing a peat-based METRO MIX 360® potting soil available from SUN GRO® Horticulture Canada, Ltd. The seeds were propagated in greenhouse zone G4, located in the R&D building of Dow AgroSciences (Indianapolis, Ind., USA), at 26° C. with a relative humidity of 53%. Natural light was supplemented with 1,000-watt metal halide overhead lamps with an average illumination of about 500 μE/m^2·s photosynthetic active radiation for 16 consecutive hours each day.
Each of the 1-ounce clear cups was filled with about 30 grams of the inoculated Midwest field soil having the components as shown in TABLE 5. […] The soil moisture of the Midwest field soil was about 15% as measured by Mettler LJ16 Moisture Analyzer (15 minutes and 100° C.).
The Midwest field soil in each selected 1-ounce cup was treated with about 9 mL of the selected composition using a 10 mL pipette. Deionized water was used as a control. The remainders of the 1-ounce cups were capped, and a small hole was poked into each lid to provide air flow. The remainders of the 1-ounce cups were stored in a controlled environment at 26° C. and covered with a black plastic bag to prevent any light from entering, until being used for the test.
Cabbage plants were gently removed from the 3-inch pots, and the plant roots were washed with water to remove any excess soil. Then, the cabbage plant was transplanted into the 1-ounce cup containing the treated Midwest field soil (one cabbage plant per one 1-ounce cup). The plants were watered as needed after being transplanted.
At the selected number of days after treating the Midwest field soil with the composition (i.e., numbers of days after the soil treatment, “DAT”), the cabbage plant in each 1-ounce cup was infested with GPA by placing a piece of squash leaf infested with about 25 aphids on each cabbage plant. The plants were then placed in a controlled environment at 26° C. for three days.
Five different evaluation times were performed: DAT of 0, 7, 14, 21, or 28 days. For example, for the DAT of zero (0) day, the cabbage plant was infested with GPA on the same day that it was transplanted into the treated Midwest field soil. […]

[1] = dose rate: sulfoxaflor 6.25 ppm, combination 6.25 + 384 ppm
[2] = Table 7, dose rate: sulfoxaflor 6.25 ppm, combination 6.25 + 384 ppm
[3] = Table 8, dose rate: sulfoxaflor 25 ppm, combination 25 + 384 ppm

SMILES	% Control at DAT of 21 days [1] [%]	% Control at DAT of 28 days [2] [%]	% Control at DAT of 28 days [3] [%]	number of live GPA aphids at DAT of 21 days (FIG. 6, cabbage in treated Midwest soil, counted three days after infestation, loading as named in the composition)
C[C@@H](c1ccc(C(F)(F)F)nc1)[S@](C)(=O)=NC#N (racemic) [Sulfoxaflor, [methyl(oxo) {1-[6-(trifluoromethyl)-3-pyridyl]ethyl}-λ^6-sulfanylidene]cyanamide, reference compound]	0	0	36.39	–
CCCCCCCCOC(=O)CC(C(=O)OCCCCCCCC)S(=O)(=O)O.[Na] (stereo not shown) [GEROPON ® SDS Surfactant, Sodium dioctyl sulfosuccinate]	0	0	0	30 to 40
